Type in all cases: ADME, organism-based
Series [1] can be described thus: Oral bioavailability in rat at 2 mg/kg by LC/MS/MS analysis. The following applies: in vivo.
Series [2] can be described thus: Half life in rat at 1 mg.kg, iv or 2 mg/kg, po by LC/MS/MS analysis. Particulars: in vivo.
A short description of series [3]: Volume of distribution at steady state in rat at 1 mg/kg, iv or 2 mg/kg, po by LC/MS/MS analysis. The following applies: in vivo, read-out: Vdss.
Series [4] is described as follows: Dose normalized AUC in rat at 2 mg/kg, po by LC/MS/MS analysis. The following applies: in vivo.
Series [5] is described as follows: Clearance in rat at 1 mg/kg, iv or 2 mg/kg, po by LC/MS/MS analysis. The following applies: in vivo.

The term bioavailability denotes dose-corrected exposure relative to a reference, in per cent. A high value points to good availability. Usually half-life stands for how long it takes for the measured level to halve. Lower therefore signals rapid decline. In series [1], `CC[C@](CO)(c1ccc(Cl)cc1)n1ccc2c(NS(C)(=O)=O)cccc21` yielded a bioavailability of 65%. In series [2], this compound showed a half-life of 1.5 h. Besides, in series [3], the Vd was 4.1 L/kg. Besides, the AUC/dose in series [4] stood at 0.67 µM·kg·h/mg. The clearance in series [5] came to 41 mL/min/kg.
The corresponding values for `CC[C@](C(=O)NC)(c1ccc(Cl)cc1)n1ccc2c(NS(C)(=O)=O)cccc21` are 21%, 0.6 h, 2.8 L/kg, 0.13 µM·kg·h/mg and 67 mL/min/kg.

(Values after ChEMBL document CHEMBL4715716, “Discovery of novel non-steroidal reverse indole mineralocorticoid receptor antagonists” (Bioorg Med Chem Lett, 2016).)
